Measurements published in the NIST ThermoML archive (doi:10.1021/je0201370).

Assays:
[1] = 298.1 K; 101.33 kPa; Liquid; vibrating tube
[2] = excess molar enthalpy (molar enthalpy of mixing); xn = mol fraction of the nth substance listed; conditions: 101 kPa, Liquid

CCCOC(=O)CC [propyl propanoate]
Conditions | mass density [kg/m3]
[1] | 875.53

c1ccccc1 [benzene]
Conditions | mass density [kg/m3]
[1] | 873.45

CCCCCCO [hexan-1-ol] + c1ccccc1
[2]
Conditions | excess molar enthalpy [kcal/mol]
298 K, x1 = 0.0619 | 0.155
298 K, x1 = 0.0988 | 0.197
298 K, x1 = 0.1383 | 0.231
298 K, x1 = 0.1909 | 0.258
298 K, x1 = 0.2287 | 0.273
298 K, x1 = 0.2675 | 0.283
298 K, x1 = 0.3137 | 0.289
298 K, x1 = 0.3792 | 0.291
298 K, x1 = 0.4153 | 0.284
298 K, x1 = 0.4625 | 0.271
298 K, x1 = 0.5107 | 0.261
298 K, x1 = 0.5648 | 0.242
298 K, x1 = 0.6192 | 0.217
298 K, x1 = 0.7214 | 0.163
298 K, x1 = 0.7711 | 0.139
298 K, x1 = 0.8482 | 0.0908
298 K, x1 = 0.8884 | 0.0691
298 K, x1 = 0.979 | 0.0136
308 K, x1 = 0.037 | 0.115
308 K, x1 = 0.0647 | 0.173
308 K, x1 = 0.1001 | 0.217
308 K, x1 = 0.1428 | 0.256
308 K, x1 = 0.1815 | 0.279
308 K, x1 = 0.2272 | 0.299
308 K, x1 = 0.2476 | 0.306
308 K, x1 = 0.3195 | 0.317
308 K, x1 = 0.3867 | 0.322
308 K, x1 = 0.463 | 0.313
308 K, x1 = 0.4675 | 0.31
308 K, x1 = 0.5017 | 0.303
308 K, x1 = 0.5463 | 0.288
308 K, x1 = 0.593 | 0.266
308 K, x1 = 0.6577 | 0.231
308 K, x1 = 0.7485 | 0.177
308 K, x1 = 0.8067 | 0.137
308 K, x1 = 0.8318 | 0.119
308 K, x1 = 0.8867 | 0.0796
308 K, x1 = 0.9323 | 0.0478

CCCCCCO [hexan-1-ol]
Conditions | mass density [kg/m3]
[1] | 815.16

CCCOC(=O)CC [propyl propanoate] + CCCCCCO
[2], 308 K
Conditions | excess molar enthalpy [kcal/mol]
x1 = 0.0406 | 0.0552
x1 = 0.089 | 0.116
x1 = 0.1367 | 0.17
x1 = 0.1766 | 0.208
x1 = 0.247 | 0.269
x1 = 0.3217 | 0.315
x1 = 0.3805 | 0.34
x1 = 0.4198 | 0.355
x1 = 0.4667 | 0.361
x1 = 0.5259 | 0.367
x1 = 0.5961 | 0.362
x1 = 0.6484 | 0.349
x1 = 0.6999 | 0.327
x1 = 0.7542 | 0.299
x1 = 0.7995 | 0.263
x1 = 0.8595 | 0.205
x1 = 0.9109 | 0.143
x1 = 0.9496 | 0.0872
